# ChEMBL document CHEMBL1151141, “Antineoplastic agents, 162. Zephyranthes candida” (1990)
# Test system: P388
# Assay: Cytotoxicity against mouse P388 cells
# Type: functional
# Details: read-out: ED50 (the source's name)
row,Structure (SMILES),EC50
1,CC(=O)Oc1c2c(cc3c1C(=O)N[C@H]1[C@H](OC(C)=O)[C@H](OC(C)=O)[C@@H](OC(C)=O)C[C@H]31)OCO2,3.2 ng/mL
2,O=C1N[C@H]2[C@H](O)[C@H](O)[C@@H](O)C[C@@H]2c2cc3c(c(O)c21)OCO3,3.2 ng/mL
3,O=C1N[C@H]2[C@H](O)[C@H](O)[C@@H](O)C[C@H]2c2cc3c(c(O)c21)OCO3,24 ng/mL
